Measured values: patent publication US9079919B2 (HOFFMANN-LA ROCHE INC., priority 2011, dated 2015)

Biological target: T1, BACE1 (Homo sapiens, UniProt P56817)
T1 construct: Human HEK293 cells which are stably transfected with a vector expressing a cDNA of the human APP wt gene (APP695); endogenous in cells; host or cells: HEK293 cells stably transfected with human APP695 (wt)
Assay: Cellular Aβ-lowering assay a) (Aβ40 ELISA)
Assay type: cell-based
Settings: cellular assay a): HEK293 cells expressing human APP695, Aβ40 in supernatant by ELISA after 18-20 hrs; read-out: BACE1 cell act. Aβ40 IC50
Experimental: a) Human HEK293 cells which are stably transfected with a vector expressing a cDNA of the human APP wt gene (APP695) were used to assess the potency of the compounds in a cellular assay. The cells were seeded in 96-well microtiter plates in cell culture medium (Iscove, plus 10% (v/v) fetal bovine serum, glutamine, penicillin/streptomycin) to about 80% confluence and the compounds were added at a 10× concentration in 1/10 volume of medium without FCS containing 8% DMSO (final concentration of DMSO was kept at 0.8% v/v). After 18-20 hrs incubation at 37° C. and 5% CO2 in a humidified incubator the culture supernatant was harvested for the determination of Aβ40 concentrations. 96 well ELISA plates (e.g., Nunc MaxiSorb) were coated with monoclonal antibody which specifically recognize the C-terminal end of Aβ40 (Brockhaus et al., NeuroReport 9, 1481-1486; 1998). After blocking of non-specific binding sites with e.g. 1% BSA and washing, the culture supernatants were added in suitable dilutions together with a horseradish peroxidase-coupled Aβ detection antibody (e.g., antibody 4G8, Senetek, Maryland Heights, Mo.) and incubated for 5 to 7 hrs. Subsequently the wells of the microtiter plate were washed extensively with Tris-buffered saline containing 0.05% Tween 20 and the assay was developed with tetramethylbenzidine/H2O2 in citric acid buffer. After stopping the reaction with one volume of 1N H2SO4 the reaction was measured in an ELISA reader at 450 nm wavelength. The concentrations of Aβ in the culture supernatants were calculated from a standard curve obtained with known amounts of pure Aβ peptide.

T1 sequence (P56817 46-501): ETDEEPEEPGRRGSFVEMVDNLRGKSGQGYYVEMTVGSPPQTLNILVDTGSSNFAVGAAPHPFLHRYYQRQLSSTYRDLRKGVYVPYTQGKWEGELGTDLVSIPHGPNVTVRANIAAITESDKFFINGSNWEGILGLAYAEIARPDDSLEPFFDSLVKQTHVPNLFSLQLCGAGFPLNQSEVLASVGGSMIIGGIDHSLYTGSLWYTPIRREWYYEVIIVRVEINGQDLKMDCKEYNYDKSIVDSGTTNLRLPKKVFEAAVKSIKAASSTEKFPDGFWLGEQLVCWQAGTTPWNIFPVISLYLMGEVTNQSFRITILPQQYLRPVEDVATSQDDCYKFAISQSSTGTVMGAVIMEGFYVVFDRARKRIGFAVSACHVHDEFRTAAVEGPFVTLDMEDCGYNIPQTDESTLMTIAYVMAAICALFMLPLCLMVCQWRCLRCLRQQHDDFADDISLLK

IC50 [nM]	SMILES
260	N#Cc1cccc(-c2ccc3c(c2)[C@@]2(CC(c4ccccc4)O3)N=C(N)OCC2(F)F)c1 (stereo partly shown) [Example 27]
470	N#Cc1ccc(C(=O)Nc2ccc3c(c2)[C@@]2(CC(c4ccccc4)O3)N=C(N)COCC2(F)F)nc1 (mixture of isomers) [Example 53, N-((2RS,4R)-3′-Amino-6′,6′-difluoro-2-phenyl-6′,7′-dihydro-2′H-spiro[chroman-4,5′-[1,4]oxazepine]-6-yl)-5-cyanopicolinamide]
22	NC1=N[C@@]2(CCCc3ccc(NC(=O)c4ccc(Cl)cn4)cc32)C(F)(F)CO1 [Example 12, (R)—N-(2′-Amino-5′,5′-difluoro-3,4,5′,6′-tetrahydro-2H-spiro[naphthalene-1,4′-[1,3]oxazine]-7-yl)-5-chloropicolinamide]
3380	NC1=N[C@@]2(CC(c3ccccc3)Oc3ccc(NC(=O)c4ccc(C(F)(F)F)cn4)cc32)C(F)(F)COC1 (mixture of isomers) [Example 52, N-((2RS,4R)-3′-Amino-6′,6′-difluoro-2-phenyl-6′,7′-dihydro-2′H-spiro[chroman-4,5′-[1,4]oxazepine]-6-yl)-5-(trifluoromethyl)picolinamide]
2530	CC1(C)C[C@@]2(N=C(N)OCC2(F)F)c2cc(-c3cncc(Cl)c3)ccc2O1 [Example 28, (R)-6-(5-chloropyridin-3-yl)-5′,5′-difluoro-2,2-dimethyl-5′,6′-dihydrospiro[chroman-4,4′-[1,3]oxazin]-2′-amine]
1360	NC1=N[C@@]2(CCc3ccc(-c4ccnc(Cl)c4)cc32)C(F)(F)CO1 [Example 6, (R)-6-(2-Chloropyridin-4-yl)-5′,5′-difluoro-2,3,5′,6′-tetrahydrospiro[indene-1,4′-[1,3]oxazin]-2′-amine]
1040	N#Cc1cccc(-c2ccc3c(c2)[C@@]2(CC(c4ccccc4)O3)N=C(N)COCC2(F)F)c1 (mixture of isomers) [Example 60, 3-((2RS,4R)-3′-amino-6′,6′-difluoro-2-phenyl-6′,7′-dihydro-2′H-spiro[chroman-4,5′-[1,4]oxazepine]-6-yl)benzonitrile]
1250	NC1=N[C@@]2(CCOc3ccc(NC(=O)c4[nH]ncc4Cl)cc32)C(F)(F)CO1 [Example 35]
830	N#Cc1ccc(C(=O)Nc2ccc3c(c2)[C@@]2(CCO3)N=C(N)COCC2(F)F)nc1 [Example 49, (R)—N-(3′-Amino-6′,6′-difluoro-6′,7′-dihydro-2′H-spiro[chroman-4,5′-[1,4]oxazepine]-6-yl)-5-cyanopicolinamide]
240	N#Cc1ccc(C(=O)Nc2ccc3c(c2)[C@@]2(CCC3)N=C(N)COCC2(F)F)nc1 [Example 47, (R)—N-(3′-Amino-6′,6′-difluoro-3,4,6′,7′-tetrahydro-2H,2′H-spiro[naphthalene-1,5′-[1,4]oxazepine]-7-yl)-5-cyanopicolinamide]
2490	NC1=N[C@@]2(CCc3ccc(NC(=O)c4ccc(Cl)cn4)cc32)C(F)(F)CO1 [Example 16, (R)—N-(2′-Amino-5′,5′-difluoro-2,3,5′,6′-tetrahydrospiro[indene-1,4′-[1,3]oxazine]-6-yl)-5-chloropicolinamide]
70	N#Cc1ccc(C(=O)Nc2ccc3c(c2)[C@@]2(CC(c4ccccc4)O3)N=C(N)OCC2(F)F)nc1 (single isomer, unassigned) [Example 37, N-((2R or 2S,4R)-2′-Amino-5′,5′-difluoro-2-phenyl-5′,6′-dihydrospiro[chroman-4,4′-[1,3]oxazine]-6-yl)-5-cyanopicolinamide]
2130	NC1=N[C@@]2(CCOc3ccc(NC(=O)c4ccc(Cl)cn4)cc32)C(F)(F)COC1 [Example 50, (R)—N-(3′-Amino-6′,6′-difluoro-6′,7′-dihydro-2′H-spiro[chroman-4,5′-[1,4]oxazepine]-6-yl)-5-chloropicolinamide]
